From ChEMBL document CHEMBL3988442, “University of Dundee, Small-Polar-MMV Screening Library” (2021)
Several values for one entry are separate records, joined by “and”; a condition that tells them apart may be missing. Equal values may be shown once.

What was measured:
Plasmodium falciparum [1] = test: Plasmodium falciparum sporozoite viability assay; assay type: functional, organism-based; conditions: for IC50: Plasmodium falciparum
[2] = biological target: Polyketide synthase Pks13 (Mycobacterium tuberculosis (strain ATCC 25618 / H37Rv), UniProt I6X8D2); test: Mycobacterium tuberculosis Polyketide synthase 13 Thioesterase (PKS13); assay type: functional
[3] = biological target: Sialic acid-binding Ig-like lectin 9 (Homo sapiens, UniProt Q9Y336); test: Hs-Siglec9 ALPHAscreen SOP 20170721
[4] = biological target: T1, Coenzyme A biosynthesis bifunctional protein CoaBC (Mycobacterium tuberculosis (strain ATCC 25618 / H37Rv), UniProt P9WNZ1); test: Biomol Green assay for MtCoaBC inhibitor, OD650 read; assay type: functional
T1 sequence (P9WNZ1 whole entry): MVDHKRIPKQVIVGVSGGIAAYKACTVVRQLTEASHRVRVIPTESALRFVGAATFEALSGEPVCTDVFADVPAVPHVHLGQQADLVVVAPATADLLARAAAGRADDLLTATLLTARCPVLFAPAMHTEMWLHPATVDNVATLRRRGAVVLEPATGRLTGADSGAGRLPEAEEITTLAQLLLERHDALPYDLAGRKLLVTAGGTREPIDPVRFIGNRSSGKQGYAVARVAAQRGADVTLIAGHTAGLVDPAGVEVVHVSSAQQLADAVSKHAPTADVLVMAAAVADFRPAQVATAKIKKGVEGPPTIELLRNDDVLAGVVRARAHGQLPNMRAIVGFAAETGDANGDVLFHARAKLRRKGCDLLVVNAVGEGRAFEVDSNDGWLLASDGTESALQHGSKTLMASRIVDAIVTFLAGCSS

[5] = In vitro enzyme assay to detect hydrolysis of chlorophenol red-beta-D-[…] directly proportional to the number of Toxoplasma stably expressing beta-galactosidase; assay type: functional, organism-based, Toxoplasma gondii; conditions: for IC50: Toxoplasma gondii
ClpP1P2 = ClpP1P2 (Mycobacterium tuberculosis (strain ATCC 25618 / H37Rv), UniProt P9WPC3+P9WPC5); test: in vitro assay to detect presence of AMC directly proportional to the activity of ClpP1P2. GHDDI collaboration.; assay type: functional
Plasmodium falciparum [6] = test: Calibr Malaria Delayed Death Assay SOP; assay type: functional, organism-based; conditions: for IC50: Plasmodium falciparum
Lysine--tRNA ligase = Lysine--tRNA ligase (Plasmodium falciparum (isolate 3D7), UniProt Q8IDJ8); test: Pf-KRS-1 (Lysyl-RNA Synthetase-1, KRS-1, cytosolic KRS) from Plasmodium falciparum. Inhibitor assay, 384 well plate, luminescence read.; assay type: functional

Row | Compound | pIC50 (Plasmodium falciparum [1]) | IC50 (Plasmodium falciparum [1]) [nM] | other results
1 | CC(C)(C)n1ncc2c(=O)n(CC(=O)NCc3ccccc3Cl)cnc21 | 7.103 | 103 | 
2 | CC(C)(C)n1ncc2c(=O)n(CC(=O)NCc3ccccc3)cnc21 | 7.194 | 43 | 
3 | COC(=O)CCCNC(=O)N1CCc2c([nH]c3ccc(Cl)cc23)C1 | 5.609 and 6.035 |  | 
4 | Cc1cc(C(=O)NCc2cc(C)oc2C)no1 |  |  | IC50 [2]: > 100000 nM; IC50 [3]: > 30200 nM
5 | O=C(NCCNc1cc(N2CCCC2)cnn1)Nc1ccccc1F | 6.092 | 819 | 
6 | COCC1CN(Cc2ccsc2)Cc2cnn(C)c21 (configuration not stated) |  |  | IC50 [3]: > 30200 nM; IC50 [4]: > 30200 nM
7 | NC(=O)c1ccc(NC(=O)Cn2cc(I)cn2)cc1 | 5.308 | 3070 | 
8 | CC/N=c1\nc(NCC)nc2n1C(O)(Nc1ccc(C)cc1C)CS2 (configuration not stated) | 5.511 | 2830 | 
9 | O=C(Nc1ccc(Cl)cn1)c1nn(C2CCS(=O)(=O)C2)c2c1CCCC2 (configuration not stated) | 5.512 and 5.897 |  | 
10 | O=C(Nc1cccc(Cl)c1)c1nn(C2CCS(=O)(=O)C2)c2c1CCCC2 (configuration not stated) | 5.123 | 8150 | 
11 | COc1c(C(=O)NCc2cnn(C)c2C)nnn1Cc1ccccc1 |  |  | IC50 [3]: > 30200 nM; IC50 [5]: > 50100 nM
12 | CCn1nc(C)c(NC(=O)c2nnn(Cc3ccccc3)c2OC)c1C |  |  | IC50 [3]: > 30200 nM; IC50 [5]: > 50100 nM
13 | CCOCCCNC(=O)c1nnn(Cc2ccccc2)c1OC |  |  | IC50 [3]: > 30200 nM; IC50 [5]: > 50100 nM
14 | COc1c(C(=O)NCC2CCCO2)nnn1Cc1ccccc1 (configuration not stated) |  |  | IC50 [3]: > 30200 nM; IC50 [5]: > 50100 nM
15 | COc1c(C(=O)NCc2cccnc2)nnn1Cc1ccccc1 |  |  | IC50 [3]: > 30200 nM; IC50 [5]: > 50100 nM
16 | COc1c(C(=O)NCC(C)C)nnn1Cc1ccccc1 |  |  | IC50 [3]: > 30200 nM; IC50 [5]: > 50100 nM
17 | CC(C)N1CCCC(c2cc(C(F)(F)F)nc3nccn23)C1 (configuration not stated) |  |  | IC50 [3]: > 30200 nM; IC50 (ClpP1P2): > 100000 nM
18 | FC(F)(F)c1cc(C2CCN(c3cnccn3)CC2)n2ccnc2n1 |  |  | IC50 [3]: > 30200 nM; IC50 (ClpP1P2): > 100000 nM
19 | Cc1cc(C(=O)N2CCCC(c3cc(=O)nc4n3CCC4)C2)on1 (configuration not stated) |  |  | IC50 [3]: > 30200 nM; IC50 [4]: > 30200 nM
20 | FC(F)(F)c1cc(C2CCCN(c3cnccn3)C2)n2ccnc2n1 (configuration not stated) |  |  | IC50 [3]: > 30200 nM; IC50 (ClpP1P2): > 100000 nM
21 | Cc1csc(NC(=O)c2cnc(C3CCCN(C)C3)cn2)n1 (configuration not stated) | 5.674 and 6.096 |  | 

Row | Compound | pIC50 (Plasmodium falciparum [1]) | IC50 (Plasmodium falciparum [1]) [nM] | other results
22 | Cc1ccc(Nc2nccc(C3CCN(CC(N)=O)C3)n2)nc1 (configuration not stated) | 7.48 | 21 | 
23 | O[C@H]1CN(CCOc2ccc(F)cc2)CC[C@@]12CCCO2 | 5.66 | 2550 | 
24 | CCn1cc(C(=O)N2CCOC(c3nc(-c4cccs4)no3)C2)cn1 (configuration not stated) | 5.925 and 5.539 |  | 
25 | Cc1ccc(Nc2nccc(C3CCCN(CC(=O)N(C)C)C3)n2)nc1 (configuration not stated) | 5.724 | 2680 | 
26 | O=C1Nc2ccccc2CN(C/C=C/c2ccccc2)C12CCNC2 (configuration not stated) |  |  | IC50 [3]: > 30200 nM; pIC50 [5]: 4.701; IC50 [5]: 15000 nM
27 | COc1ccc(C(C)NCc2ccsc2)cc1Cn1cccn1 (configuration not stated) |  |  | IC50 [3]: > 30200 nM; pIC50 (Plasmodium falciparum [6]): 6.257; IC50 (Plasmodium falciparum [6]): 477 nM
28 | CC(NC(=O)c1cc(C(C)C)[nH]n1)C(=O)Nc1ccccc1 (configuration not stated) | 7.217 | 48.9 | 
29 | Cc1ccnc(NC(=O)c2ccc(Cl)o2)c1 | 7.621 and 7.995 |  | 
30 | CN(C)CC(C)(O)CNC(=O)Nc1sc2ccccc2c1Cl (configuration not stated) | 5.506 | 2690 | 
31 | Cc1nc(COc2ccc(OC3CCCCNC3=O)cc2)oc1C (configuration not stated) | 7.451 | 39 | 
32 | NC(=O)C1CN(c2ccc3cc(Br)ccc3n2)CCO1 (configuration not stated) | 7.699 and 7.366 |  | 
33 | O=C(CCn1cccn1)NS(=O)(=O)N1CCCc2ccccc21 | 6.348 | 495 | 
34 | Cn1cc(CCC(=O)NS(=O)(=O)N2CCCc3ccccc32)cn1 | 6.583 | 157 | 
35 | Cc1ncsc1CN(C)Cc1cc2c(cc1OC(F)F)OCO2 | 5.624 | 3970 | 
36 | COCCNC(=O)Nc1cc2c(cc1SC)OCCO2 | 6.283 | 555 | 
37 | CSc1cc2c(cc1NC(=O)NCCn1ccnc1)OCCO2 | 6.776 | 126 | 
38 | CSc1cc2c(cc1NC(=O)NCC1CCOC1)OCCO2 (configuration not stated) | 6.419 | 218 | 
39 | CC(C)(C)n1ncc2c1CCCC2NCc1ccc2c(c1)OCCO2 (configuration not stated) | 6.564 | 411 | 
40 | CC(C)C(=O)N1CCN(Cc2csc(-c3ccccn3)n2)CC1 | 5.915 | 965 | 
41 | OCC1CCCN1c1cc(NCCc2ccccn2)ncn1 (configuration not stated) | 7.276 | 51.7 | 
42 | OCC1CCCN1c1cc(NCCc2ccsc2)ncn1 (configuration not stated) | 7.515 | 59.6 | 

Row | Compound | pIC50 (Plasmodium falciparum [1]) | IC50 (Plasmodium falciparum [1]) [nM] | other results
43 | c1cc(-c2noc(CN3CCc4c(ncn4C4CC4)C3)n2)cs1 | 5.546 | 2470 | 
44 | CC(=O)N1Cc2ccccc2CC1C(=O)Nc1cc(C)ccn1 (configuration not stated) | 7.317 | 41.2 | 
45 | COCCN(C)c1ccc(NCc2cscn2)nc1 | 6.387 | 391 | 
46 | OC1CCN(c2ccc(CNc3nc4ccccc4s3)cc2F)CC1 | 7.297 and 6.882 |  | 
47 | CCC(=O)NC1CCCN(C(=O)Nc2cc(-c3ccccc3)on2)C1 (configuration not stated) | 6.751 | 187 | 
48 | Cc1nnc(CN(C)Cc2nc3c(s2)CCCC3)o1 | 5.52 | 3560 | 
49 | O=C(NCCc1nncn1C1CC1)c1cc2ccccn2c1 |  |  | IC50 [3]: > 30200 nM; IC50 (ClpP1P2): > 100000 nM
50 | CN1CCN(C2CCN(c3cnc4ccccc4n3)CC2)C1=O | 7.03 and 7.343 |  | 
51 | CCC(CC)c1nnc(NC(=O)N2CCCC(NC(C)=O)C2)s1 (configuration not stated) | 5.262 and 5.718 |  | 
52 | CN1CCOC(C(=O)Nc2ccc3c(c2)nc(C(C)(C)C)n3C)C1 (configuration not stated) | 7.552 | 16.9 | 
53 | Cc1ccnc(NC(=O)CSCc2cccnc2)c1 | 7.141 and 6.819 |  | 
54 | O=C(Nc1ccc(N2CCCC2)nc1)N1CCc2ccccc2C1 | 5.522 | 2030 | 
55 | Cc1cncc(NC(=O)c2ccc(CN3CC[C@H](O)C3)cc2)c1 | 6.801 | 80.2 | 
56 | COc1ccc2cc(C3CN(C(=O)CN4CCCC4)CCO3)ccc2c1 (configuration not stated) | 5.408 | 7630 | 
57 | CCC1CN(C(=O)c2ccc(O)cn2)CCC(=O)N1Cc1ccccc1 (configuration not stated) | 5.529 and 5.955 |  | 
58 | CN(C)CCNc1ccc(-c2nc(-c3ccccc3F)no2)cn1 | 7.212 and 6.908 |  | 
59 | CC(C)(C)c1ncc(C(=O)NCCSc2ccccn2)c(O)n1 | 7.35 | 63.2 | 
60 | C(=C\c1ccc(CN2CCCC2)cn1)/c1ccccc1 | 7.171 | 113 | 
61 | COc1ccc2cc(C3CN(C(=O)CCNC(C)=O)CCO3)ccc2c1 (configuration not stated) | 7.142 | 48.6 | 
62 | COCc1noc(-c2ccc(N3CCC[C@H]3CO)nc2)n1 | 7.269 | 60.2 | 
63 | COC(=O)CC1CCN(C(=O)Nc2ccc(-c3ccn[nH]3)cc2)C1 (configuration not stated) | 6.226 | 436 | 

Row | Compound | pIC50 (Plasmodium falciparum [1]) | IC50 (Plasmodium falciparum [1]) [nM] | other results
64 | CNC(=O)CCC(=O)N1CCOC(c2ccc3cc(OC)ccc3c2)C1 (configuration not stated) | 7.215 | 83 | 
65 | c1cncc(OCc2nc(C3CC3)nn2-c2ccc3c(c2)OCCO3)c1 | 5.428 | 3840 | 
66 | Cc1cc(NC(=O)c2ccc(CN3CC[C@H](O)C3)cc2)ccc1F | 7.801 | 15.2 | 
67 | Clc1ccc2nc(N3CCC(NCCCC4CCOC4)CC3)sc2c1 (configuration not stated) | 5.724 | 3770 | 
68 | CCCc1cc(CNC2CCN(c3nc4ccccc4s3)CC2)on1 | 5.685 | 1840 | 
69 | CSc1ccccc1C(=O)Nc1ccc(OC2CCN(C)CC2)cc1 | 6.337 and 5.999 |  | 
70 | CNc1cc(C)nc(N2C[C@@H](C(=O)O)[C@H](C3CC3)C2)n1 | 5.907 | 989 | 
71 | Cn1c(-c2cc3n(n2)CCCN(CC(=O)O)C3)nc2ccccc21 | 5.921 and 6.257 |  | 
72 | CN1CCCC1CCn1ccnc1-c1nc(-c2ccccc2)no1 (configuration not stated) | 6.882 | 71.6 | 
73 | CO[C@H]1C[C@@H](O)C12CCN(C(=O)CCCOc1ccccc1)CC2 | 6.089 and 6.557 |  | 
74 | COc1cc(NC(=O)c2ccc(CN3CC[C@H](O)C3)cc2)cc(OC)c1 | 6.645 | 175 | 
75 | COc1ccc2cc(C3CN(C(=O)N(C)C)CCO3)ccc2c1 (configuration not stated) | 7.993 | 14.9 | 
76 | CSc1ccc(-c2nc(CN3CCC(NC(C)=O)C3)c(C)o2)cc1 (configuration not stated) | 6.077 | 533 | 
77 | Cc1cccc(C(=O)Nc2ccc(OC3CCN(C)CC3)cc2)c1 | 7.031 | 119 | 
78 | COc1cccc(-c2noc(C3CCN(Cc4cn(C)nc4C)C3)n2)c1 (configuration not stated) | 5.995 | 863 | 
79 | CC(C)c1nc2c(n1C)CCN(Cc1nc(-c3ccoc3)no1)C2 | 5.631 | 3150 | 
80 | CN1CC2(CCN(Cc3ccoc3)CC2)COc2ccccc2S1(=O)=O.O=C(O)C(F)(F)F |  |  | IC50 [3]: > 30200 nM; pIC50 (Plasmodium falciparum [6]): 5.92; IC50 (Plasmodium falciparum [6]): 906 nM
81 | c1cnc(N2CCC3(CCN(CC4CCOC4)CC3)CC2)nc1 (configuration not stated) |  |  | IC50 (Lysine--tRNA ligase): > 50100 nM; IC50 [3]: > 30200 nM
82 | Cc1cccc(Nc2cc(C3CCCN(CC(N)=O)C3)ccn2)n1.O=CO.O=CO (configuration not stated) | 6.742 | 186 | 
